Measured values published in patent US20250018014A1, “METHOD FOR TREATING AND/OR PREVENTING REGNASE-1-RELATED DISEASE” (OSAKA UNIVERSITY, priority 2018, published 2025).
Residues, ends and D or L forms follow the SMILES beside them.

Tests used:
[1] = biological target: T1, FL_Reg1 (full-length human Regnase-1) phosphorylation by TBK1 (Homo sapiens, UniProt Q5D1E8); assay: Regnase-1 phosphorylation inhibition by compounds (AlphaScreen), TBK1, full-length Regnase-1; assay type: biochemical; details: Table 13; phosphorylation by TBK1; read-out: Phosphorylation inhibition FL_Reg1, 50% inhibition concentration (TBK1)
T1 construct: made in house; host or cells: Expi293 cells
T1 sequence (Q5D1E8 1-599): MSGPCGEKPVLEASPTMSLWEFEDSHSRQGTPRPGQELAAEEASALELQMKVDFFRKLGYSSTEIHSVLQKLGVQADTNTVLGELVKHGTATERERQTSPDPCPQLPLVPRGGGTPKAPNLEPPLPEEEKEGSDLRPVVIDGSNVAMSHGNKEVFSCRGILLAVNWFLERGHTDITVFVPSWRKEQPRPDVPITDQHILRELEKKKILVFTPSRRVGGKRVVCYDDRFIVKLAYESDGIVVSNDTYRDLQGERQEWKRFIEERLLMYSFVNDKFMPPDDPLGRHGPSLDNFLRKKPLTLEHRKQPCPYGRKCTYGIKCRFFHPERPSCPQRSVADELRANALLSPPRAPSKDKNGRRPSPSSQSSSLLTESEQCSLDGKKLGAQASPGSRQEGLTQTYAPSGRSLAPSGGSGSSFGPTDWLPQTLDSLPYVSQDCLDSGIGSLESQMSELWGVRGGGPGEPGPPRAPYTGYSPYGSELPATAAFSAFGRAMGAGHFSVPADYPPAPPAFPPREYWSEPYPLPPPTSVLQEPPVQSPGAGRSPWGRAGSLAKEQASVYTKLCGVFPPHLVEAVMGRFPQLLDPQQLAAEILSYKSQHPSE
Excerpt: (§1) The full-length sequence of human Regnase-1 (UniProt ID: Q5D1E8) was used to prepare a construct having a FLAG tag on the N-terminal side and a recognition sequence for biotin ligase BirA on the C-terminal side (FL_Reg1) as a target protein. The above-mentioned Regnase-1 was expressed in mammalian Expi293 cells, purified with FLAG M2 agarose, and isolated by gel filtration chromatography. When biotinylation was required, methods from nonpatent documents (BMC biotechnology, 2008,8,41; and Protein Science, 1999,8,921-929) were used. […]
(§2) Using Kinase assay buffer III (manufactured by SignalChem) supplemented with 2 mM DTT, 100 μM sodium vanadate, and 2 mM manganese chloride, kinase (IKKβ (manufactured by SignalChem) or TBK1 (manufactured by SignalChem)) and Regnase-1 were reacted in the presence of 10 μM ATP at room temperature for 2 hours to perform a phosphorylation reaction.
(§3) Phosphorylated Regnase-1 was detected by the AlphaScreen system. After each of the above-mentioned phosphorylated Regnase-1 antibodies was added and reacted at room temperature for one hour, anti-FLAG AlphaLISA Acceptor Beads (manufactured by PerkinElmer) and Protein A AlphaScreen Donor Beads (manufactured by PerkinElmer) were added, and EnVision (manufactured by PerkinElmer) was used to measure the excited luminescence. As a result, phosphorylated Regnase-1 produced by the phosphorylation reaction by kinase was specifically detected, and signals were confirmed to be enhanced in a manner dependent on Regnase-1 and kinase concentrations (FIG. 24).
(§4) After mixing 2 nM of the above-mentioned Regnase-1 and the compound, phosphorylated Regnase-1 produced by the phosphorylation reaction was detected by the AlphaScreen system. As the results, the inhibition rate was calculated from the signals obtained when adding the compound at each concentration, by defining the signal obtained with Regnase-1 alone to be 100% inhibition rate, and the signal obtained when the same amount of solvent (DMSO) is added in place of the compound as 0% inhibition rate. The 50% inhibition concentration (μM) was calculated from the obtained dose response curve (Table 11).

[2] = biological target: T2, binding between TBK1 and full-length Regnase-1 (FL_Reg1) (Homo sapiens, UniProt Q5D1E8); assay: Inhibition of kinase-Regnase-1 binding by the compounds (AlphaScreen), TBK1; details: Table 13; binding between TBK1 and Regnase-1; read-out: Binding inhibition FL_Reg1, 50% inhibition concentration (TBK1)
T2 construct: made in house; host or cells: Expi293 cells
T2 sequence (Q5D1E8 1-599): T1 sequence (Q5D1E8 1-599)
Experimental: (§5) As a target protein, a construct having a FLAG tag on the N-terminal side and a recognition sequence for biotin ligase BirA on the C-terminal side of the full-length sequence of human Regnase-1 (UniProt ID: Q5D1E8) was prepared (FL_Reg1). The above-mentioned Regnase-1 was expressed in mammalian Expi293 cells, purified with FLAG M2 agarose, and isolated by gel filtration chromatography. When biotinylation was required, methods from nonpatent documents (BMC biotechnology, 2008,8,41; and Protein Science, 1999,8,921-929) were used.
(§6) After mixing 2.5 nM of the above-mentioned Regnase-1 and the compound, 2.5 nM of IKKβ or TBK1 was added and reacted at room temperature for two hours. Then, Anti FLAG AlphaLISA Acceptor Beads (manufactured by PerkinElmer) and Glutathione-coated AlphaScreen Donor Beads (manufactured by PerkinElmer) were added, and excited luminescence was measured using En Vision (manufactured by PerkinElmer). As the results, the inhibition rate from the signals obtained when adding the compound at each concentration were calculated, by defining the signal obtained with Regnase-1 alone to be 100% inhibition rate, and the signal obtained when the same amount of solvent (DMSO) is added in place of the compound as 0% inhibition rate. The 50% inhibition concentration (μM) was calculated from the obtained dose response curve (Table 12).

[3] = biological target: T3, FL_Reg1 (full-length human Regnase-1) phosphorylation by IKKβ (Homo sapiens, UniProt Q5D1E8); assay: Regnase-1 phosphorylation inhibition by compounds (AlphaScreen), IKKβ, full-length Regnase-1; assay type: biochemical; details: Table 14; phosphorylation by IKKβ; read-out: Phosphorylation inhibition FL_Reg1, 50% inhibition concentration (IKKβ)
T3 construct: made in house; host or cells: Expi293 cells
T3 sequence (Q5D1E8 1-599): T1 sequence (Q5D1E8 1-599)
Excerpt: as §1, §2, §3, §4

[4] = biological target: T4, binding between IKKβ and full-length Regnase-1 (FL_Reg1) (Homo sapiens, UniProt Q5D1E8); assay: Inhibition of kinase-Regnase-1 binding by the compounds (AlphaScreen), IKKβ; details: Table 14; binding between IKKβ and Regnase-1; read-out: Binding inhibition FL_Reg1, 50% inhibition concentration (IKKβ)
T4 construct: made in house; host or cells: Expi293 cells
T4 sequence (Q5D1E8 1-599): T1 sequence (Q5D1E8 1-599)
Experimental: as §5, §6

[5] = biological target: T5, Reg1_301-599 (amino acids 301-599 of human Regnase-1) phosphorylation by TBK1 (Homo sapiens, UniProt Q5D1E8); assay: Regnase-1 phosphorylation inhibition by compounds (AlphaScreen), TBK1, C-terminal Regnase-1; assay type: biochemical; details: Table 13, read-out: Phosphorylation inhibition Reg1_301-599, 50% inhibition concentration (TBK1)
T5 construct: made in house; host or cells: Expi293 cells
T5 sequence (Q5D1E8 301-599): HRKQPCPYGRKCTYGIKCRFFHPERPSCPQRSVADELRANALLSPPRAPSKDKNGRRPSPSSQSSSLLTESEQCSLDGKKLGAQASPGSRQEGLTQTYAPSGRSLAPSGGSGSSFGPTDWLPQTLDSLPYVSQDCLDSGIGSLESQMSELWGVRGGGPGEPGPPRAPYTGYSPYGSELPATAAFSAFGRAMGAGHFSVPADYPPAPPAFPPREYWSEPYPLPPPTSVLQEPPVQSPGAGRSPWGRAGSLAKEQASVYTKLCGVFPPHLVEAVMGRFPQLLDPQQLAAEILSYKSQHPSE
Experimental: (§7) Among the full-length human Regnase-1 sequence, the 1st to 546th amino acid sequence was prepared and made into a construct having a FLAG tag on the N-terminal side and a biotin ligase BirA recognition sequence on the C-terminal side (herein, a Regnase-1 lacking the C-terminal domain of Regnase-1 (amino acids 547 to 599 in the case of SEQ ID NO: 2) is referred to as “ΔCTD_Reg1”. “ΔCTD_Reg1” is different from “Regnase-1ΔCTD”, which is a C-terminal domain deletion variant resulting from a frameshift mutation caused by a 1 bp deletion at codon 517, as prepared in Example 13). In addition, the sequence from amino acids 301 to 599 of the full-length human Regnase-1 sequence was designated as C-terminal Regnase-1, and a construct having a FLAG tag on the N-terminal side and a recognition sequence for biotin ligase BirA on the C-terminal side was prepared (Reg1_301-599). The above-mentioned Regnase-1 was expressed in mammalian Expi293 cells, purified with FLAG M2 agarose, and isolated by gel filtration chromatography. When biotinylation was required, methods of nonpatent documents (BMC biotechnology, 2008,8,41; and Protein Science, 1999,8,921-929) were used.
as §2, §3, §4

[6] = biological target: T6, Reg1_301-599 (amino acids 301-599 of human Regnase-1) phosphorylation by IKKβ (Homo sapiens, UniProt Q5D1E8); assay: Regnase-1 phosphorylation inhibition by compounds (AlphaScreen), IKKβ, C-terminal Regnase-1; assay type: biochemical; details: Table 14, read-out: Phosphorylation inhibition Reg1_301-599, 50% inhibition concentration (IKKβ)
T6 construct: made in house; host or cells: Expi293 cells
T6 sequence (Q5D1E8 301-599): T5 sequence (Q5D1E8 301-599)
Excerpt: The full-length sequence of human Regnase-1 (UniProt ID: Q5D1E8) was used to prepare a construct having a FLAG tag on the N-terminal side and a recognition sequence for biotin ligase BirA on the C-terminal side (FL_Reg1) as a target protein. The above-mentioned Regnase-1 was expressed in mammalian Expi293 cells, purified with FLAG M2 agarose, and isolated by gel filtration chromatography. When biotinylation was required, methods from nonpatent documents (BMC biotechnology, 2008,8,41; and Protein Science, 1999,8,921-929) were used.
as §7, §2, §3, §4

| SMILES | IC50 [1] | IC50 [2] | IC50 [3] | IC50 [4] | IC50 [5] | IC50 [6] |
| --- | --- | --- | --- | --- | --- | --- |
| CC[C@H](C)[C@@H]1NC(=O)[C@H](C)NC(=O)[C@H](CCCNC(=N)N)NC(=O)[C@H](Cc2ccc(O)cc2)NC(=O)[C@H](Cc2ccc(O)cc2)NC(=O)[C@H](C)NC(=O)[C@H](CO)NC(=O)[C@H](CC(N)=O)NC(=O)[C@H](Cc2ccccc2)NC(=O)[C@H](CC(N)=O)NC(=O)[C@H](C)N(C)C(=O)C[C@@H](C(=O)N2CCCC2)NC(=O)[C@H](Cc2c[nH]c3ccccc23)NC1=O [PP7] (HELM PEPTIDE1{[meA].N.F.N.S.A.Y.Y.R.A.I.W.D.[C1CCN([*:1])C1]}$PEPTIDE1,PEPTIDE1,1:R1-13:R3$$$V2.0) | 2.2 µM | 17.9 µM | 0.8 µM | 15.1 µM | 4.6 µM | – |
| CC[C@H](C)[C@@H]1NC(=O)[C@H](CC(N)=O)NC(=O)[C@H](Cc2ccc(O)cc2)NC(=O)[C@H](Cc2c[nH]c3ccccc23)NC(=O)[C@H](CO)NC(=O)[C@H](CC(N)=O)NC(=O)[C@H](Cc2c[nH]c3ccccc23)NC(=O)[C@H](Cc2ccc(O)cc2)NC(=O)[C@H](CCCCN)NC(=O)[C@H](CO)NC(=O)[C@@H](C)N(C)C(=O)C[C@@H](C(=O)N2CCCC2)NC(=O)[C@H](Cc2c[nH]c3ccccc23)NC1=O [PP8] (HELM PEPTIDE1{[C[C@H](C(=O)[*:2])N(C)[*:1]].S.K.Y.W.N.S.W.Y.N.I.W.D.[C1CCN([*:1])C1]}$PEPTIDE1,PEPTIDE1,1:R1-13:R3$$$V2.0) | 2.9 µM | 6.5 µM | 1.4 µM | 7.4 µM | – | 5.7 µM |
